From article PMC11406361, “Several orphan solute carriers functionally identified as organic cation transporters: Substrates specificity compared with known cation transporters” (The Journal of Biological Chemistry, 2024)
Where two headings read alike, the source gives them in different places.

Tests used:
[1] = biological target: T1, SLC35G3 (Homo sapiens, UniProt Q8N808); conditions: ratio of Vmax over KM
[2] = biological target: T2, SLC22A15 (Homo sapiens, UniProt Q8IZD6); assay: Uptake ratio screen, SLC22A15-overexpressing HEK293 over empty vector cells; assay type: cell-based; conditions: 2.5 μM (nicotine 10 μM), 2 min
T2 construct: by amplifying the entire gene-of-interest within the HEK293 genome via a long-range PCR
T2 sequence (Q8IZD6 whole entry): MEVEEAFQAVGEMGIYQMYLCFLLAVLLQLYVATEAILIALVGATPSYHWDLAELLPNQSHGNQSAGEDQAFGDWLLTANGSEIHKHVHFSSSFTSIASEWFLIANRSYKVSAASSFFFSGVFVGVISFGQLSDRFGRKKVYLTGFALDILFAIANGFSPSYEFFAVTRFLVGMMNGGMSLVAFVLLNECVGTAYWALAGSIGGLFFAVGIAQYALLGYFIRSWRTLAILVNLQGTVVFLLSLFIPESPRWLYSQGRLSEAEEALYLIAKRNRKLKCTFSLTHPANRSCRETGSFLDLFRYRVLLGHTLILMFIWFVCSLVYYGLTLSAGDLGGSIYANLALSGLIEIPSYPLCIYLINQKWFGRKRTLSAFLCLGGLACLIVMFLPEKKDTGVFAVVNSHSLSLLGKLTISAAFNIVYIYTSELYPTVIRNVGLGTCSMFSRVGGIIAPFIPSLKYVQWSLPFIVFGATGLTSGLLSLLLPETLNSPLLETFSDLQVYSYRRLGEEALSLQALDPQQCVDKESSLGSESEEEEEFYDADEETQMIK
Experimental: (§1) Typically discussed substrates of the proton organic-cation antiporter ([14]) are highlighted in dark green in Figure 1.
(§2) In preparation for transport experiments, 24-well plates were pre-coated with poly-D-lysine (Sigma-Aldrich) and 300,000 cells were plated per well and incubated for 48 h. Firstly, the 24-well plate was placed on a heating plate at 37 °C, and the cells were washed with 37 °C HBSS^+ buffer (Hank’s balanced salt solution supplemented with 10 mM Hepes and adjusted to pH 7.4; Thermo Fisher Scientific). The substance-of-interest, which was diluted in 37 °C HBSS^+ to a desired concentration, was added to the cells for exactly 2 min. […] The uptake was stopped with ice-cold HBSS^+, and the 24-well plate was removed from the heating plate. The cells were washed twice with the cold HBSS^+ before they were lysed for 15 min with 80% (v/v) acetonitrile containing the respective internal standard for mass spectrometry. For variations in seeded cell numbers between the cell lines, several wells were lysed in RIPA buffer and used for total protein quantification using a bicinchoninic assay ([74]) and bovine serum albumin as calibration.
(§3) The intracellular drug concentrations after transport experiments were analyzed by high-performance liquid chromatography coupled to tandem mass spectrometry analysis. The HPLC consisted of a Shimadzu Nexera HPLC System with a SIL-30AC autosampler, a LC-30AD pump, a CTO-20AC column oven, and a CBM-20A controller (Shimadzu). The reverse-phase chromatography of compounds was accomplished with a Brownlee SPP RP-Amide column with 4.6 × 100 mm inner dimensions, a particle size of 2.7 μm, and a preceding Phenomenex C-18 guard column. The mobile phase was composed of an organic additive with acetonitrile:methanol 6:1 (v/v) in total concentrations between 3% and 50% (v/v) and 0.1% (v/v) formic acid in the aqueous component of the eluent. During separation, the column oven was held at 40 °C and the mobile phase was maintained at a flow rate of 300 or 400 μl/min. After separation, the detection of substances was performed with an API 4000 tandem mass spectrometer (AB SCIEX, https://sciex.com/support/software-support/software-downloads), followed by quantification of results with the Analyst software (AB SCIEX, version 1.6.2). The composition of chromatographic conditions, as well as detailed mass spectrometric detection parameters, are listed in Table S5.
(§4) Transport-mediated net uptake was determined as fold-increase of transporter-overexpressing cells over empty vector–transfected control cells.

[3] = biological target: T3, SLC35F4 (Homo sapiens, UniProt A4IF30); assay: Uptake ratio screen, SLC35F4-overexpressing HEK293 over empty vector cells; assay type: cell-based; parameters: by amplifying the entire gene-of-interest within the HEK293 genome via a long-range PCR; conditions: 2.5 μM, 2 min
T3 sequence (A4IF30 1-521): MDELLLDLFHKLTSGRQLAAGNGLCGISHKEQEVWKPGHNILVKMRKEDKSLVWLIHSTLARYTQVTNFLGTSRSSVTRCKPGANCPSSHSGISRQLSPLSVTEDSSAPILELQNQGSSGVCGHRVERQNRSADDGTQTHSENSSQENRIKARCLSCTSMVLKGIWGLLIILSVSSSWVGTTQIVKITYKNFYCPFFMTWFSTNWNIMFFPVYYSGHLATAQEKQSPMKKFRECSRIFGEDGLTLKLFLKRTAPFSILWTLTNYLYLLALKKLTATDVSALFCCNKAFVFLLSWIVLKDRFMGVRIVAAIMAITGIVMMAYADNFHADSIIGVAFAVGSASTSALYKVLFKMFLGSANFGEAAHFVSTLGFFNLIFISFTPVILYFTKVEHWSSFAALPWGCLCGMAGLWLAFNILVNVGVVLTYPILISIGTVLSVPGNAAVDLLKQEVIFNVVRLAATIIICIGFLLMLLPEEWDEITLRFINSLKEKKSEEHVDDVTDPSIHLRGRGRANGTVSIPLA
Experimental: as §1, §2, §3, §4

[4] = biological target: T1, SLC35G3; assay: Uptake ratio screen, SLC35G3-overexpressing HEK293 over empty vector cells; assay type: cell-based; parameters: by amplifying the entire gene-of-interest within the HEK293 genome via a long-range PCR; conditions: 2.5 μM substrate, 2 min, HEK293
[5] = biological target: T4, SLC35F5 (Homo sapiens, UniProt Q8WV83); assay: Uptake ratio screen, SLC35F5-overexpressing HEK293 over empty vector cells; assay type: cell-based; parameters: by amplifying the entire gene-of-interest within the HEK293 genome via a long-range PCR; conditions: 2.5 μM, 2 min
T4 sequence (Q8WV83 1-523): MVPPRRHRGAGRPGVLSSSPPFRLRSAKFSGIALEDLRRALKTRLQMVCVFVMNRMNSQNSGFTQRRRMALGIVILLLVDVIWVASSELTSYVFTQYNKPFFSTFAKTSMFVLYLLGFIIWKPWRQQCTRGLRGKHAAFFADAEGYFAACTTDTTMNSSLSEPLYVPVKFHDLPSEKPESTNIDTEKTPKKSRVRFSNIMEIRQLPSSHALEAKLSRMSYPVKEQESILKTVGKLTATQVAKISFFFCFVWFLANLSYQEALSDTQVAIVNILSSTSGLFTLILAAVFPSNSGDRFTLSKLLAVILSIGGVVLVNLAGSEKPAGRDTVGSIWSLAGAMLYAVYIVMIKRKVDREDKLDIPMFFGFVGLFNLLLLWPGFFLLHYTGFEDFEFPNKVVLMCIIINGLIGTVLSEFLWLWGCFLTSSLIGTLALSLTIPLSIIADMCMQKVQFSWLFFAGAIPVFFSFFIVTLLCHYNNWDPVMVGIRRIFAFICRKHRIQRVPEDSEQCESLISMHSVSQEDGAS
Experimental: as §1, §2, §3, §4

[6] = biological target: T5, SLC22A18 (Homo sapiens, UniProt Q96BI1); assay: Uptake ratio screen, SLC22A18-overexpressing HEK293 over empty vector cells; assay type: cell-based; conditions: 2.5 μM (nicotine 10 μM), 2 min
T5 construct: by amplifying the entire gene-of-interest within the HEK293 genome via a long-range PCR
T5 sequence (Q96BI1 whole entry): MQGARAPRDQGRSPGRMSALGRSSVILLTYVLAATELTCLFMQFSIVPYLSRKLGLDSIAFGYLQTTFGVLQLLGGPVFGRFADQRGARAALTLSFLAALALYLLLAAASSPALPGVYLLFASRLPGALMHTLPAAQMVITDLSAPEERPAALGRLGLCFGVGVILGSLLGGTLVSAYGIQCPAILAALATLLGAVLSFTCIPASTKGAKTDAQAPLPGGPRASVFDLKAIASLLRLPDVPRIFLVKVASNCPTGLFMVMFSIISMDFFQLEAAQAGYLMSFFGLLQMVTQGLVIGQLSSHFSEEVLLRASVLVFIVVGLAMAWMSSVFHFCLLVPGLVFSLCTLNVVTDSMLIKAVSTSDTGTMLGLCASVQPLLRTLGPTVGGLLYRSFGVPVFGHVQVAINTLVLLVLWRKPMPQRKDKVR
Experimental: as §1
In preparation for transport experiments, 24-well plates were pre-coated with poly-D-lysine (Sigma-Aldrich) and 300,000 cells were plated per well and incubated for 48 h. Firstly, the 24-well plate was placed on a heating plate at 37 °C, and the cells were washed with 37 °C HBSS^+ buffer (Hank’s balanced salt solution supplemented with 10 mM Hepes and adjusted to pH 7.4; Thermo Fisher Scientific). The substance-of-interest, which was diluted in 37 °C HBSS^+ to a desired concentration, was added to the cells for exactly 2 min. […] For variations in seeded cell numbers between the cell lines, several wells were lysed in RIPA buffer and used for total protein quantification using a bicinchoninic assay ([74]) and bovine serum albumin as calibration.
The intracellular drug concentrations after transport experiments were analyzed by high-performance liquid chromatography coupled to tandem mass spectrometry analysis. […] After separation, the detection of substances was performed with an API 4000 tandem mass spectrometer (AB SCIEX, https://sciex.com/support/software-support/software-downloads), followed by quantification of results with the Analyst software (AB SCIEX, version 1.6.2). […]

[7] = biological target: T6, SLC19A2 (Homo sapiens, UniProt O60779); assay: Uptake ratio screen, SLC19A2-overexpressing HEK293 over empty vector cells; assay type: cell-based; conditions: 2.5 μM, 2 min
T6 construct: expressed in transfected cells
T6 sequence (O60779 1-497): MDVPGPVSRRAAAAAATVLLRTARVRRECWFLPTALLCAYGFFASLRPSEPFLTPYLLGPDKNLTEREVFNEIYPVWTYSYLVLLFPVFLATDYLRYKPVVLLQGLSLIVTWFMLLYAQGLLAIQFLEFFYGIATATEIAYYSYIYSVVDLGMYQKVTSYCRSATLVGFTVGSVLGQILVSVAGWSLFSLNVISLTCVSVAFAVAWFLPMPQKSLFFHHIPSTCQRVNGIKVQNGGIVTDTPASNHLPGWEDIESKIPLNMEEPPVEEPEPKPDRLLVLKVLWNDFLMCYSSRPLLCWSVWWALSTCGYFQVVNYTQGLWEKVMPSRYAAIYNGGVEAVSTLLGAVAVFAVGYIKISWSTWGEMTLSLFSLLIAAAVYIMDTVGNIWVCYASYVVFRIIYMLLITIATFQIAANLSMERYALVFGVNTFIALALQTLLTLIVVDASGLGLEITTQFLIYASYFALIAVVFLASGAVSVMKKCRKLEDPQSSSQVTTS
Experimental: as §1, §2
(§5) The intracellular drug concentrations after transport experiments were analyzed by high-performance liquid chromatography coupled to tandem mass spectrometry analysis. The HPLC consisted of a Shimadzu Nexera HPLC System with a SIL-30AC autosampler, a LC-30AD pump, a CTO-20AC column oven, and a CBM-20A controller (Shimadzu). The reverse-phase chromatography of compounds was accomplished with a Brownlee SPP RP-Amide column with 4.6 × 100 mm inner dimensions, a particle size of 2.7 μm, and a preceding Phenomenex C-18 guard column. […] After separation, the detection of substances was performed with an API 4000 tandem mass spectrometer (AB SCIEX, https://sciex.com/support/software-support/software-downloads), followed by quantification of results with the Analyst software (AB SCIEX, version 1.6.2). […]
as §4

[8] = biological target: SLC38A10 (Homo sapiens, UniProt Q9HBR0)
Sequence of SLC38A10 (Q9HBR0 whole entry): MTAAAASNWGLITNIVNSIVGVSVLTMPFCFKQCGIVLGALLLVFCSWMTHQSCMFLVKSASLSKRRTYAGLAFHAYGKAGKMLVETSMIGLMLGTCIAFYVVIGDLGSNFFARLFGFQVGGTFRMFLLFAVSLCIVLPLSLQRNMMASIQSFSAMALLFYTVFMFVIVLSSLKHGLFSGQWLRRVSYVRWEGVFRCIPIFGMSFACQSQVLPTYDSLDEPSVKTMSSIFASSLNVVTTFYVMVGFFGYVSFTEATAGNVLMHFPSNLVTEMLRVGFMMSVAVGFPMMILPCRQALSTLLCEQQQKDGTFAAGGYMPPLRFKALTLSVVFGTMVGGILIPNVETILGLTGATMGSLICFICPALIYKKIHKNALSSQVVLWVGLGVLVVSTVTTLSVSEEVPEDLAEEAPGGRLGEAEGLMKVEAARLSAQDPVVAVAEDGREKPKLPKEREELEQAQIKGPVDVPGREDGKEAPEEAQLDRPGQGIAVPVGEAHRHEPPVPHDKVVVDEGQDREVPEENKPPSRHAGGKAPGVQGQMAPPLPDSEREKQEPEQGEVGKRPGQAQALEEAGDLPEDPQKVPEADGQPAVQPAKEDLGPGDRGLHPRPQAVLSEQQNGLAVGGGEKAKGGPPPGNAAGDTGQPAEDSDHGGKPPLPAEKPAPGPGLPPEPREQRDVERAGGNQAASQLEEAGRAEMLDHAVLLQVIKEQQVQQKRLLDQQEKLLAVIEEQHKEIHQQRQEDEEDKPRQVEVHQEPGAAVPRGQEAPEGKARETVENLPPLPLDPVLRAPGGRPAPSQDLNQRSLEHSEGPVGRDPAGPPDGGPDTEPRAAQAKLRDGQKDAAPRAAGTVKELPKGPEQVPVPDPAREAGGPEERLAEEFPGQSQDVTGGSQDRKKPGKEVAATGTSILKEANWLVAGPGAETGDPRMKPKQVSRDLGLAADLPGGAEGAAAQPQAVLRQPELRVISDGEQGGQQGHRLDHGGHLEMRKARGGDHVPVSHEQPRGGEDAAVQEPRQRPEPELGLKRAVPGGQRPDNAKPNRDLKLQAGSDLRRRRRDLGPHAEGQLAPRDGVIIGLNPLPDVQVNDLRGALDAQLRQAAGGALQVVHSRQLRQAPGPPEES

[9] = biological target: T1, SLC35G3
[10] = biological target: SLC47A2 (Homo sapiens, UniProt Q86VL8); assay: Uptake ratio screen, SLC47A2-overexpressing HEK293 over empty vector cells; assay type: cell-based; conditions: 2.5 μM, 2 min
Sequence of SLC47A2 (Q86VL8 1-566 isoform Q86VL8-3): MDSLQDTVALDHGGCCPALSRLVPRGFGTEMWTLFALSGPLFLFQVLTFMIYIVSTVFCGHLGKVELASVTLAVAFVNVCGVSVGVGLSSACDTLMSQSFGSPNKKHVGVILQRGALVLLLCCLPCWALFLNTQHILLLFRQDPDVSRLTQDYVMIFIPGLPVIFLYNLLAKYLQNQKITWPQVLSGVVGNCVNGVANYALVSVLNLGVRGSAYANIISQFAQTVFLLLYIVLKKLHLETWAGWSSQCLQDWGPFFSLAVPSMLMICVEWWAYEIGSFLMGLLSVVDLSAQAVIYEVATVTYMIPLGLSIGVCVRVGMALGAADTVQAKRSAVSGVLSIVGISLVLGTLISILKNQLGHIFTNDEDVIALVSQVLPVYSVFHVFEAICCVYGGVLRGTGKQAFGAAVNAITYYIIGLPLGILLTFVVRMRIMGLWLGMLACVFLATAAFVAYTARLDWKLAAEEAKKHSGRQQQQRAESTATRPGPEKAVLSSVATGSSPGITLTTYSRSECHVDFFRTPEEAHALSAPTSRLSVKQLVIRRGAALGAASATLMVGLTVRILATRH
Experimental: as §1, §2, §5, §4

[11] = biological target: T7, SLC47A1 (Homo sapiens, UniProt Q96FL8); assay: Uptake ratio screen, SLC47A1-overexpressing HEK293 over empty vector cells; assay type: cell-based; conditions: 2.5 μM, 2 min
T7 sequence (Q96FL8 1-570): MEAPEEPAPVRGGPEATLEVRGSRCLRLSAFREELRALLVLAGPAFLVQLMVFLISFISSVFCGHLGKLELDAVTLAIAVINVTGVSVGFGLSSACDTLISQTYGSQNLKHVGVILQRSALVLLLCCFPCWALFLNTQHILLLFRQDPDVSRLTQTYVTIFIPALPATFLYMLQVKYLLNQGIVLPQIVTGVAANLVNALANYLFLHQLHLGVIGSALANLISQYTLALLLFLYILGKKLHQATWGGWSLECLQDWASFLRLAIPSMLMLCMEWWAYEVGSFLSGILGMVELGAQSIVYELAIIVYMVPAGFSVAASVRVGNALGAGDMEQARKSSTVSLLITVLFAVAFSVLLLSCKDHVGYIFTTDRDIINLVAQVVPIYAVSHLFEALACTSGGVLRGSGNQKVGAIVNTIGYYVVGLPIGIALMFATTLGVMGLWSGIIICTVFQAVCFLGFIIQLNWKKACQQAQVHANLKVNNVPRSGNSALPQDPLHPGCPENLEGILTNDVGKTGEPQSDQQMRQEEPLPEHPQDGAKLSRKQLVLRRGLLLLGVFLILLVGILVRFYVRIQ
Experimental: as §1, §2, §5, §4

[12] = biological target: T8, SLC35E4 (Homo sapiens, UniProt Q6ICL7); assay: Uptake ratio screen, SLC35E4-overexpressing HEK293 over empty vector cells; assay type: cell-based; parameters: by amplifying the entire gene-of-interest within the HEK293 genome via a long-range PCR; conditions: 2.5 μM, 2 min
T8 sequence (Q6ICL7 1-350): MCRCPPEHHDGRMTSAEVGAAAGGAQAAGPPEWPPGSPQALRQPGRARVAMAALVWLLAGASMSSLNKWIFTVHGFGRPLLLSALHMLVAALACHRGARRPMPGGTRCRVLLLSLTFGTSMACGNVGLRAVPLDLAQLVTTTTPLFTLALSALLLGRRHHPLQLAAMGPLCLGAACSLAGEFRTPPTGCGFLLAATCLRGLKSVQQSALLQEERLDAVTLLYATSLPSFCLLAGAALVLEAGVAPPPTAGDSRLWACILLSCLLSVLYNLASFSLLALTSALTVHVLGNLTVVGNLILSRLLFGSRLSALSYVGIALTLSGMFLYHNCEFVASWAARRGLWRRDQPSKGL
Experimental: as §1, §2, §5, §4

T1 sequence (Q8N808 whole entry): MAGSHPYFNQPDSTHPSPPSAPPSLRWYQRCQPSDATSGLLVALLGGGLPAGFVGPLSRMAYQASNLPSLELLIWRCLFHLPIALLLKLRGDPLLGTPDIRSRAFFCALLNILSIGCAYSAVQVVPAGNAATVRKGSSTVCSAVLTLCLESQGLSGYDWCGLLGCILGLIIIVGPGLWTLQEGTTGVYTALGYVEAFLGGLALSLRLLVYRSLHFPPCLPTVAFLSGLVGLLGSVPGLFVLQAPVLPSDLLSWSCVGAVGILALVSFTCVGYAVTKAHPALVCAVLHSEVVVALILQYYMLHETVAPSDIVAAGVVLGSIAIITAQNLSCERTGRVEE

## CCOC(=O)C1(c2ccccc2)CCN(C)CC1 [Meperidine]
[1]
  Clint (±SEM): 4.60 (±4.78) μl × mg protein^-1 × min^-1
[2]
  Uptake by SLC22A15 (in words): significantly increased the uptake

## COC(=O)C(c1ccccc1)C1CCCCN1 (centres unmarked) [Methylphenidate]
[3]
  Uptake by SLC35F4 (in words): enhanced cell uptake
[4]
  Uptake data for SLC35G3, mean value (fold-increase over empty vector control): 1.31
[5]
  Uptake by SLC35F5 (in words): highest uptake rates
[6]
  Uptake by SLC22A18 (in words): newly identified substrates
[7]
  Uptake by SLC19A2 (in words): enhance cell uptake

## CN1CCC[C@H]1c1cccnc1 [Nicotine]
[2]
  Uptake by SLC22A15 (in words): significantly increased the uptake
[6]
  Uptake by SLC22A18 (in words): newly identified substrates
[8]; SLC38A10, HEK293, net uptake over empty vector cells
  Vmax (±SEM): 48.4 (±7.26) pmol × mg protein^-1 × min^-1
[8]; SLC38A10, ratio of Vmax over KM
  Clint (±SEM): 0.78 (±0.57) μl × mg protein^-1 × min^-1

## CCCN1CCCC[C@H]1C(=O)Nc1c(C)cccc1C [Ropivacaine]
[4]
  Uptake data for SLC35G3, mean value (fold-increase over empty vector control): 3.07
[9]
  Clint (±SEM): 3.64 (±1.93) μl × mg protein^-1 × min^-1

## CN(C)CCc1c[nH]c2ccc(C[C@H]3COC(=O)N3)cc12 [Zolmitriptan]
[4]
  Uptake data for SLC35G3, mean value (fold-increase over empty vector control): 1.27

## C[C@]12CC[C@@H]3c4ccc(OS(=O)(=O)O)cc4CC[C@H]3[C@@H]1CCC2=O [estrone-3-sulfate]
[10]
  Uptake by SLC47A2 (MATE2K) (in words): confirmed to be transported
[11]
  Uptake by SLC47A1 (MATE1) (in words): confirmed to be transported

## CC(C)C[C@H](N)C(=O)O [leucine]
[12]
  Uptake by SLC35E4 (in words): minor
